Test results as given in the supplement of paper PMC10307832.

Assays:
Assay in all cases: relative viability (nuclei count vs DMSO), 5 days (fraction); higher = more cells survive
Kobe2602 + Phenformin = compound: C1=CC(=CC=C1NC(=S)NNC2=C(C=C(C=C2[N+](=O)[O-])C(F)(F)F)[N+](=O)[O-])F [Kobe2602] + N=C(N)NC(=N)NCCc1ccccc1 [Phenformin] (partner 250 µM)
Summary of the method: (§1)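 Medians of duplicate plates are given as relative viability. That measure is the nuclei count in treated wells divided by the count in vehicle wells. Counts were taken on 4× images of lung cancer cell lines in 1536-well plates, 5 days after pin-tool dosing the day after seeding with one drug alone or a fixed anchor-drug dose plus five library-drug doses (not always all listed) in √10 steps.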

[1] = compound: COc1cc2nccc(Oc3ccc(NC(=O)C4(C(=O)Nc5ccc(F)cc5)CC4)cc3)c2cc1OC [Cabozantinib] + CCNC(=O)c1noc(-c2cc(C(C)C)c(O)cc2O)c1-c1ccc(CN2CCOCC2)cc1 [Luminespib] (partner 0.01 µM)
Summary of the method: as §1

Kobe2602 + Navitoclax = compound: C1=CC(=CC=C1NC(=S)NNC2=C(C=C(C=C2[N+](=O)[O-])C(F)(F)F)[N+](=O)[O-])F [Kobe2602] + CC1(C)CCC(c2ccc(Cl)cc2)=C(CN2CCN(c3ccc(C(=O)NS(=O)(=O)c4ccc(N[C@H](CCN5CCOCC5)CSc5ccccc5)c(S(=O)(=O)C(F)(F)F)c4)cc3)CC2)C1 [Navitoclax] (partner 0.5 µM)
Summary of the method: as §1

[2] = compound: COc1cc2nccc(Oc3ccc(NC(=O)C4(C(=O)Nc5ccc(F)cc5)CC4)cc3)c2cc1OC [Cabozantinib] + CC(=O)Nc1cccc(-n2c(=O)n(C3CC3)c(=O)c3c(Nc4ccc(I)cc4F)n(C)c(=O)c(C)c32)c1 [Trametinib] (partner 0.02 µM)
Summary of the method: as §1

Row | Cell Line | relative viability (Kobe2602 + Phenformin; first compound 0.2 µM) | relative viability (Kobe2602 + Phenformin; first compound 0.6325 µM) | relative viability (Kobe2602 + Phenformin; first compound 6.325 µM) | relative viability (Kobe2602 + Phenformin; first compound 20 µM) | relative viability ([1]; first compound 0.02 µM) | relative viability ([1]; first compound 0.06325 µM) | relative viability ([1]; first compound 0.2 µM) | relative viability ([1]; first compound 0.6325 µM) | relative viability ([1]; first compound 2 µM) | relative viability (Kobe2602 + Navitoclax; first compound 0.6325 µM) | relative viability (Kobe2602 + Navitoclax; first compound 2 µM) | relative viability (Kobe2602 + Navitoclax; first compound 6.325 µM) | relative viability (Kobe2602 + Navitoclax; first compound 20 µM) | relative viability (Kobe2602 + Navitoclax; first compound 0.2 µM) | relative viability (Kobe2602 + Phenformin; first compound 2 µM) | relative viability ([2]; first compound 0.02 µM) | relative viability ([2]; first compound 0.06325 µM) | relative viability ([2]; first compound 0.2 µM) | relative viability ([2]; first compound 0.6325 µM) | relative viability ([2]; first compound 2 µM)
1 | ABC-1 | 0.215 | 0.233 | 0.211 | 0.227 | 0.458 | 0.494 | 0.83 | 1.11 | 0.758 |  |  |  |  |  |  |  |  |  |  | 
2 | IA-LM |  |  |  |  |  |  |  |  |  | 0.741 | 0.737 | 0.639 | 0.669 |  |  |  |  |  |  | 
3 | NCI-H520 | 0.539 | 0.582 | 0.654 | 0.539 | 0.257 | 0.198 | 0.249 | 0.237 | 0.189 | 1.08 | 1.03 | 1.07 | 0.988 | 0.99 | 0.632 | 0.699 | 0.83 | 0.808 | 0.73 | 0.538
4 | NCI-H1915 | 0.366 | 0.38 | 0.366 | 0.361 | 0.915 | 0.978 | 0.779 | 0.871 | 0.776 | 0.827 | 0.797 | 0.791 | 0.795 | 0.796 | 0.37 | 0.331 | 0.345 | 0.335 | 0.304 | 0.28
5 | NCI-H1299 |  |  |  |  |  |  |  |  |  | 1.04 | 1.06 | 1.08 | 1.02 | 1.07 |  |  |  |  |  | 
6 | HCC-827 | 0.428 | 0.441 | 0.364 | 0.413 | 0.898 | 1.02 |  | 0.824 | 0.565 | 1.13 | 1.06 | 1.03 | 0.981 | 0.987 | 0.464 | 0.529 | 0.586 |  | 0.504 | 0.476
7 | EMC-BAC-2 | 0.575 | 0.591 | 0.538 | 0.553 | 1.23 | 1.15 | 1.24 | 1.1 | 1.09 | 1.17 | 1.11 | 1.13 | 1.16 | 1.16 | 0.508 | 0.912 | 0.949 | 0.823 | 0.854 | 0.934
8 | NCI-H650 | 0.454 | 0.538 | 0.457 | 0.452 |  | 0.784 | 0.952 | 0.751 | 0.724 |  |  |  |  |  | 0.471 | 0.923 | 0.998 | 1.16 | 0.984 | 0.876
9 | NCI-H1792 | 0.253 | 0.344 | 0.316 | 0.31 |  | 0.404 | 0.501 | 0.334 | 0.325 | 0.626 | 0.604 | 0.609 | 0.695 | 0.67 | 0.249 |  | 0.483 | 0.455 | 0.417 | 0.32
10 | NCI-H2009 | 0.454 | 0.503 | 0.421 | 0.305 | 1.13 | 1.1 | 1 | 1.1 | 1.14 | 1.25 | 1.14 | 1.19 | 1.14 | 1.19 | 0.504 | 0.276 | 0.281 | 0.293 | 0.275 | 0.24
11 | NCI-H2405 | 0.418 | 0.431 | 0.393 | 0.452 | 0.615 | 0.83 | 0.648 | 0.629 | 0.588 | 0.847 | 0.783 | 1.06 | 0.987 | 0.82 | 0.411 | 0.658 | 0.666 | 0.615 | 0.59 | 0.473
12 | SW 900 | 0.609 | 0.843 | 0.691 | 0.775 | 0.17 | 0.19 | 0.2 | 0.177 | 0.166 |  |  |  |  |  | 0.521 | 0.978 | 0.841 | 0.611 | 0.955 | 0.852
13 | NCI-H1563 | 0.684 | 0.719 | 0.668 | 0.676 | 0.507 | 0.52 | 0.508 | 0.527 | 0.531 |  |  |  |  |  | 0.675 |  |  |  |  | 
14 | NCI-H661 | 0.273 | 0.277 | 0.298 | 0.298 | 0.904 | 0.929 | 1.01 | 0.957 | 0.938 |  |  |  |  |  | 0.261 | 0.542 | 0.653 | 0.579 | 0.572 | 0.605
15 | NCI-H358 | 0.381 | 0.391 | 0.371 | 0.353 |  | 0.549 |  | 0.322 | 0.136 |  |  |  |  |  | 0.323 | 0.114 | 0.138 | 0.136 | 0.139 | 0.126
16 | Calu-6 |  |  |  |  |  |  |  |  |  | 0.875 | 0.866 | 0.826 | 0.744 | 0.818 |  |  |  |  |  | 
17 | EBC-1 |  |  |  |  |  |  |  |  |  | 0.488 | 0.436 | 0.452 | 0.483 | 0.373 |  |  |  |  |  | 
18 | NCI-H2342 | 0.658 | 0.607 | 0.553 | 0.662 | 0.673 | 0.837 | 0.864 | 0.604 | 0.591 |  |  |  |  |  | 0.563 | 0.872 | 0.949 | 0.878 | 0.738 | 0.535
19 | NCI-H1703 |  |  |  |  |  |  |  |  |  | 1.24 | 1.12 | 0.893 | 1.06 | 1.44 |  |  |  |  |  | 
20 | NCI-H1648 |  |  |  |  |  |  |  |  |  |  |  |  |  |  |  | 0.501 | 0.448 |  | 0.672 | 0.419
21 | NCI-H522 | 0.731 | 0.63 | 0.732 | 0.623 | 1.15 | 1.41 | 1.56 | 1.07 | 1.23 |  |  |  |  |  | 0.646 | 0.823 | 0.819 | 0.78 | 0.861 | 0.69
22 | A549 | 0.163 | 0.182 | 0.192 | 0.196 |  |  |  |  |  | 1.21 | 1.22 | 1.11 | 1.17 | 1.26 | 0.199 |  |  |  |  | 
23 | LCLC-103H | 0.359 | 0.381 | 0.343 | 0.351 | 1.07 | 0.962 | 1.03 | 0.983 | 0.905 |  |  |  |  |  | 0.32 | 0.716 | 0.709 | 0.678 | 0.68 | 0.667
24 | HCC-78 | 0.693 | 0.699 | 0.727 | 0.9 |  |  |  |  |  | 0.893 |  | 0.78 | 0.91 | 0.761 | 0.736 |  | 0.515 | 0.412 | 0.318 | 0.321
